# Experimental data taken from US6470889B1 (B.H.B., L.C., priority 1999, dated 2002).
# Assay: Empiric porcine aortic contrast enhancement, dynamic CT at fixed mid-abdominal aortic level after i.v. injection
# Format: in vivo, pig
# Method: In order to test the mathematical solutions, a porcine study was conducted. All animal care and procedures performed were approved by the Institutional Animal Study Committee. […] Each session was separated by at least two days. Two pigs had all their sessions within a week, while the other two pigs had their first two and last sessions delays 4-5 weeks, which results in an increase in their weight to 35-40 kg in their last session. In each session, the pig was anesthetized, intubated, and underwent scanning for three or four sets of images obtained in random order. During scanning, each pig was ventilated with oxygen and low tidal volume to minimize breathing motion artifact. […] Each set of scans were 45-60 minutes apart to minimize the effect of prior contrast administration. All CT scanning was performed with a Somatom Plus-S scanner (Siemens Medical Systems, […].) using a one-second scanning time and a one-second interscan delay. Three types of injection schemes were tested: uniphasic, biphasic, and multiphasic. Biphasic injections were performed by a prior art power injector which was used in routine clinical CT scanning while uniphasic and multiphasic injections were conducted with a power injector which was invented for achieving the required protocols. This power injector was capable of delivering contrast medium in various uniphasic or multiphasic injection algorithms, as is explained in greater detail below. The multiphasic injection rate is determined by an initial injection rate and an exponential decay coefficient, as shown in FIG. 3. […] Most injections were performed with the initial injection rate of 2 mL/s. […] Three differential exponential decay coefficients (0.007, 0.017, 0.026) were tested. […] These were the three smallest discrete increments allowed in the prototype of the inventive power injector. Decay coefficient higher than 0.03 was not used because it was evident that a further increase in the coefficient would deviate further away from uniform vascular enhancements. A uniphasic injection was determined as being equivalent to a zero exponential decay coefficient where the injection rate remains constant at an initial injection rate throughout the injection duration. […] Approximately half of the total contrast volume was injected in each phase of the biphasic injections. […] Attenuation values of the aorta were measured from post-contrast scans (at the same level as the pre-contrast scans) using a circular region of interest (ROI) at the center of the aorta. Contrast enhancement was calculated as the absolute different in attenuation value between the pre- and post-contrast scans. For the data analysis, the injection duration (ID), the magnitude of peak aortic enhancement (PA), and the uniformity of enhancement (the duration of the enhancement achieved with 90% of the peak: 90% DCE) were evaluated. Means and standard deviations were also computed. The results are now explained.
# [1] = 25 kg pig, 50 mL of 282 mgI/mL contrast medium, uniphasic 2 mL/sec
# [2] = four pigs, 50 mL, 2 mL/s initial injection rate, decay constant 0.017
# [3] = four pigs, 70 mL, 2 mL/s initial injection rate, decay constant 0.017
compound,measurement,setting,value
"CNC(=O)c1c(I)c(NC(C)=O)c(I)c(C(=O)O)c1I.CNC[C@H](O)[C@@H](O)[C@H](O)[C@H](O)CO [contrast medium, iothalmate meglumine]",magnitude of the peak aortic enhancement (empiric),[1],250 HU
same,time to the peak aortic enhancement (empiric),[1],26 s
same,"pattern of aortic enhancement, multiphasic vs uniphasic injection","50 mL and 70 mL, 2 mL/s, decay constant 0.017",more prolonged and uniform vascular enhancement than uniphasic injections
same,"pattern of aortic enhancement, biphasic injection","70 mL, 2 mL/s for 17 sec then 1.0 mL/s for 36 sec",two enhancement peaks with a valley in between
same,"increase of 90% DCE (duration of enhancement achieved with 90% of the peak), multiphasic vs uniphasic injection, mean",[2],81%
same,"reduction of peak aortic enhancement (PA), multiphasic vs uniphasic injection, mean",[2],19%
same,"decrease of peak aortic enhancement (PA), multiphasic vs uniphasic injection",[3],18%
same,"increase of 90% DCE, multiphasic vs uniphasic injection",[3],94%
same,"pattern of aortic enhancement, multiphasic exponential injection, decay constant 0.017","two pigs (25 kg, 40 kg), compared with decay constants 0.007 and 0.026",more uniform than with other injection protocols
